{"source": "patent EP0190900A2", "about": "“Cephalosporin compounds, their production, and pharmaceutical compositions containing them” (YAMANOUCHI PHARMACEUTICAL CO. LTD., priority 1985, dated 1986)", "key": {"S. aureus FDA 209P JC-1": {"system": "S. aureus FDA 209P JC-1", "assay": "Antibacterial activity (minimum effective inhibitory concentration)", "format": "cell-based", "conditions": "Staphylococcus aureus, FDA209P", "excerpt": "(§1) Antibacterial activities (minimum effective inhibitory concentrations) of compounds of formula I (taken from the following Examples) are shown in the following Table."}, "E. coli D-1": {"system": "E. coli D-1", "assay": "Antibacterial activity (minimum effective inhibitory concentration)", "format": "cell-based", "conditions": "Escherichia coli, D1", "excerpt": "as §1"}, "K. pneumoniae ATCC 10031": {"system": "K. pneumoniae ATCC 10031", "assay": "Antibacterial activity (minimum effective inhibitory concentration)", "format": "cell-based", "conditions": "Klebsiella pneumoniae, ATCC10031", "excerpt": "as §1"}, "S. epidermidis IID 866": {"system": "S. epidermidis IID 866", "assay": "Antibacterial activity (minimum effective inhibitory concentration)", "format": "cell-based", "conditions": "Staphylococcus epidermidis, IID866", "excerpt": "as §1"}, "P. aeruginosa NCTC 10490": {"system": "P. aeruginosa NCTC 10490", "assay": "Antibacterial activity (minimum effective inhibitory concentration)", "format": "cell-based", "conditions": "Pseudomonas aeruginosa, NCTC10490", "excerpt": "as §1"}, "[1]": {"assay": "Acute toxicity, intravenous injection into mice", "format": "in vivo", "procedure": "Some of the compounds of this invention have low toxicity (acute toxicity).\nThe compound of Example 4 has, in particular, low toxicity.\n200 mg of /the compound of Example 4 was dissolved in 2 ml of distilled water and after adjusting the pH of the solution to about 7 by addition of sodium hydrogen carbonate to form an injection solution, the solution was intravenously injected into mice (body weights: 26-28 g; ICR ? 5W) over a period of 4 minutes at a rate of 1 ml/kg. There were no lethal cases for administration doses below 4.0 g/kg."}}, "data": [{"smiles": "CO/N=C(\\C(=O)N[C@@H]1C(=O)N2C(C(=O)O)=C(CSc3nnnn3C)CS[C@H]12)c1csc(N)n1", "note": "[Cefmeno-xime]", "values": [{"measurement": "MIC", "setting": "S. aureus FDA 209P JC-1", "result": 1.56, "unit": "µg/mL"}, {"measurement": "MIC", "setting": "E. coli D-1", "result": 0.025, "unit": "µg/mL"}, {"measurement": "MIC", "setting": "K. pneumoniae ATCC 10031", "result": "≤ 0.006", "unit": "µg/mL"}, {"measurement": "MIC", "setting": "S. epidermidis IID 866", "result": 0.39, "unit": "µg/mL"}, {"measurement": "MIC", "setting": "P. aeruginosa NCTC 10490", "result": 0.2, "unit": "µg/mL"}]}, {"smiles": "CO/N=C(\\C(=O)N[C@@H]1C(=O)N2C(C(=O)[O-])=C(CSc3cc[n+](CC#N)cc3)CS[C@H]12)c1csc(N)n1", "note": "[Example 1, (Z)-7-[α-(2-amino-4-thiazolyl)-α-(methoxyimino)acetamido]-3-(1-cyanomethyl-4-pyridinio)thiomethyl-Δ^3-cephem-4-carboxylate]", "values": [{"measurement": "MIC", "setting": "S. aureus FDA 209P JC-1", "result": 0.2, "unit": "µg/mL"}, {"measurement": "MIC", "setting": "E. coli D-1", "result": 0.013, "unit": "µg/mL"}, {"measurement": "MIC", "setting": "K. pneumoniae ATCC 10031", "result": 0.013, "unit": "µg/mL"}, {"measurement": "MIC", "setting": "S. epidermidis IID 866", "result": 0.1, "unit": "µg/mL"}, {"measurement": "MIC", "setting": "P. aeruginosa NCTC 10490", "result": 0.39, "unit": "µg/mL"}]}, {"smiles": "CO/N=C(\\C(=O)N[C@@H]1C(=O)N2C(C(=O)[O-])=C(CSc3cc[n+](CC(C)=O)cc3)CS[C@H]12)c1csc(N)n1", "note": "[Example 4, (Z)-7-[α-(2-amino-4-thiazolyl)-α-(methoxyimino)acetamido]-3-[1-acetonyl-4-pyridinio)thiomethyl-Δ^3-cephem-4-carboxylate]", "values": [{"measurement": "MIC", "setting": "S. aureus FDA 209P JC-1", "result": 0.2, "unit": "µg/mL"}, {"measurement": "MIC", "setting": "E. coli D-1", "result": "≤ 0.006", "unit": "µg/mL"}, {"measurement": "MIC", "setting": "K. pneumoniae ATCC 10031", "result": "≤ 0.006", "unit": "µg/mL"}, {"measurement": "MIC", "setting": "S. epidermidis IID 866", "result": 0.1, "unit": "µg/mL"}, {"measurement": "MIC", "setting": "P. aeruginosa NCTC 10490", "result": 0.2, "unit": "µg/mL"}, {"measurement": "administration doses with no lethal cases", "setting": "[1]; ICR mice (26-28 g), intravenous injection over 4 minutes, aqueous solution at about pH 7", "result": "below 4.0 g/kg"}, {"measurement": "toxicity (acute toxicity)", "setting": "[1]; statement in words", "result": "low toxicity"}]}, {"smiles": "C#CC[n+]1ccc(SCC2=C(C(=O)[O-])N3C(=O)[C@@H](NC(=O)/C(=N\\OC)c4csc(N)n4)[C@H]3SC2)cc1", "note": "[Example 9, (Z)-7-[a-(2-amino-4-thiazolyl)-a-(methoxyimino)acetamido]-3-[1-propargyl-4-pyridinio]thiomethyl-Δ^3-cephem-4-carboxylate]", "values": [{"measurement": "MIC", "setting": "S. aureus FDA 209P JC-1", "result": 0.1, "unit": "µg/mL"}, {"measurement": "MIC", "setting": "E. coli D-1", "result": "≤ 0.006", "unit": "µg/mL"}, {"measurement": "MIC", "setting": "K. pneumoniae ATCC 10031", "result": "≤ 0.006", "unit": "µg/mL"}, {"measurement": "MIC", "setting": "S. epidermidis IID 866", "result": 0.1, "unit": "µg/mL"}, {"measurement": "MIC", "setting": "P. aeruginosa NCTC 10490", "result": 0.39, "unit": "µg/mL"}]}, {"smiles": "CC(=O)C[n+]1ccc(SCC2=C(C(=O)[O-])N3C(=O)C(NC(=O)C(=NOCCF)c4csc(N)n4)C3SC2)cc1", "note": "(stereo not drawn) [Example 12, (Z)-7-[α-(2-amino-4-thiazolyl)-α-(2-fluoroethoxyimino)acetamidoa-3-[1-acetonyl-4-pyridinio]thiomethyl-Δ^3-cephem-4-carboxylate]", "values": [{"measurement": "MIC", "setting": "S. aureus FDA 209P JC-1", "result": 0.2, "unit": "µg/mL"}, {"measurement": "MIC", "setting": "E. coli D-1", "result": 0.025, "unit": "µg/mL"}, {"measurement": "MIC", "setting": "K. pneumoniae ATCC 10031", "result": 0.013, "unit": "µg/mL"}, {"measurement": "MIC", "setting": "S. epidermidis IID 866", "result": 0.1, "unit": "µg/mL"}, {"measurement": "MIC", "setting": "P. aeruginosa NCTC 10490", "result": 0.39, "unit": "µg/mL"}]}, {"smiles": "CO/N=C(\\C(=O)N[C@@H]1C(=O)N2C(C(=O)[O-])=C(CSc3cc[n+](Cc4c[nH]cn4)cc3)CS[C@H]12)c1csc(N)n1", "note": "[Example 15, (Z)-7-[α-(2-amino-4-thiazolyl)-α-(methoxyimino)acetamido]-3-(1-(4-imidazolyl)methyl-4-pyridinio)thiomethyl-Δ^3-cephem-4-carboxylate]", "values": [{"measurement": "MIC", "setting": "S. aureus FDA 209P JC-1", "result": 0.2, "unit": "µg/mL"}, {"measurement": "MIC", "setting": "E. coli D-1", "result": 0.013, "unit": "µg/mL"}, {"measurement": "MIC", "setting": "K. pneumoniae ATCC 10031", "result": 0.013, "unit": "µg/mL"}, {"measurement": "MIC", "setting": "S. epidermidis IID 866", "result": 0.1, "unit": "µg/mL"}, {"measurement": "MIC", "setting": "P. aeruginosa NCTC 10490", "result": 0.39, "unit": "µg/mL"}]}, {"smiles": "CON=C(C)C[n+]1ccc(SCC2=C(C(=O)[O-])N3C(=O)C(NC(=O)C(=NOC)c4csc(N)n4)C3SC2)cc1", "note": "(stereo not drawn) [Example 17, (Z)-7-[α-(2-amino-4-thiazolyl)-α-(methoxyimino)acetamido]-3-(1-(2-methoxyimino-propyl)-4-pyridinio)thiomethyl-Δ^3-cephem-4-carboxylate]", "values": [{"measurement": "MIC", "setting": "S. aureus FDA 209P JC-1", "result": 0.2, "unit": "µg/mL"}, {"measurement": "MIC", "setting": "E. coli D-1", "result": 0.013, "unit": "µg/mL"}, {"measurement": "MIC", "setting": "K. pneumoniae ATCC 10031", "result": 0.013, "unit": "µg/mL"}, {"measurement": "MIC", "setting": "S. epidermidis IID 866", "result": 0.2, "unit": "µg/mL"}, {"measurement": "MIC", "setting": "P. aeruginosa NCTC 10490", "result": 0.78, "unit": "µg/mL"}]}, {"smiles": "CCCC(=O)C[n+]1ccc(SCC2=C(C(=O)[O-])N3C(=O)C(NC(=O)C(=NOC)c4csc(N)n4)C3SC2)cc1", "note": "(stereo not drawn) [Example 20, (Z)-7-[α-(2-Amino-4-thiazolyl)-α-(methoxyimino)acetamido]-3-[(1-(2-oxopentyl)-4-pyridinio]thiomethyl-Δ^3-cephem-4-carboxylate]", "values": [{"measurement": "MIC", "setting": "S. aureus FDA 209P JC-1", "result": 0.2, "unit": "µg/mL"}, {"measurement": "MIC", "setting": "E. coli D-1", "result": "≤ 0.006", "unit": "µg/mL"}, {"measurement": "MIC", "setting": "K. pneumoniae ATCC 10031", "result": "≤ 0.006", "unit": "µg/mL"}, {"measurement": "MIC", "setting": "S. epidermidis IID 866", "result": 0.1, "unit": "µg/mL"}, {"measurement": "MIC", "setting": "P. aeruginosa NCTC 10490", "result": 0.39, "unit": "µg/mL"}]}]}
